Laboratory results published in ChEMBL document CHEMBL5356983, “Design and optimization of piperlongumine analogs as potent senolytics” (Bioorg Med Chem Lett, 2024).

Experiments:
[1] = Selectivity ratio IC50 for non-senescent human WI-38 cells to IC50 for ionizing radiation induced human WI-38 senescent cells; format: functional
[2] = Senolytic activity in non-senescent human WI-38 cells by PI staining based flow cytometry analysis; format: toxicity, cell-based; details: non-senescent WI-38 cells
[3] = system: WI-38; assay: Senolytic activity in ionizing radiation induced human WI-38 senescent cells by PI staining based flow cytometry analysis; format: functional, cell-based

SMILES	Ratio IC50 [1]	IC50 [2]	IC50 [3]
COc1cc(/C=C/C(=O)N2CCC=C(Br)C2=O)cc(OC)c1OC	10.4	5.4 µM	0.52 µM
CN(C)CCOc1ccc(/C=C/C(=O)N2CCC=C(Cl)C2=O)cc1	1.5	4.4 µM	2.9 µM
COc1cc(/C=C/C(=O)N2CCC=C(F)C2=O)cc(OC)c1OC	0.8	12.1 µM	15.3 µM
COc1cc(/C=C/C(=O)N2C=CC=CCC2=O)cc(OC)c1OC	1.3	26.7 µM	21.1 µM
O=C(C#Cc1ccccc1)N1CCC=CC1=O	1.6	1.5 µM	0.93 µM
COc1ccc(/C=C/C(=O)N2CCC=C(Br)C2=O)cc1	1.8	1.1 µM	0.63 µM
CN(C)CCOc1ccc(/C=C/C(=O)N2CCCC=C(Br)C2=O)cc1	1.2	3.4 µM	2.9 µM
COc1ccc(/C=C/C(=O)N2CCC=C(Cl)C2=O)cc1	0.7	0.35 µM	0.51 µM
COc1cc(/C=C/C(=O)N2CCCC=C(Cl)C2=O)cc(OC)c1OC	3.7	1.7 µM	0.45 µM
COc1cc(/C=C/C(=O)N2CCC(N(C)C)CC2=O)cc(OC)c1OC (stereo unspecified)	3.4	34.6 µM	10.2 µM
COc1cc(/C=C/C(=O)N2CCC=C(C(F)(F)F)C2=O)cc(OC)c1OC		> 40 µM	> 40 µM
CN(C)CCOc1ccc(/C=C/C(=O)N2CCC=C(Br)C2=O)cc1	1.5	4.8 µM	3.2 µM
COc1cc(/C=C/C(=O)N2CCC=C(I)C2=O)cc(OC)c1OC	7.1	16.3 µM	2.3 µM
CN(C)CCOc1ccc(/C=C/C(=O)N2CCCC=C(Cl)C2=O)cc1	1.3	3 µM	2.4 µM
CN(C)C/C=C/C(=O)N1CCC=CC1=O	3.5	9.7 µM	2.8 µM
COc1ccc(/C=C/C(=O)N2CCCC=C(Br)C2=O)cc1	4.4	5.8 µM	1.3 µM
COc1cc(C#CC(=O)N2CCC=CC2=O)cc(OC)c1OC	3.2	13.9 µM	4.4 µM
CN(C)CCOc1ccc(/C=C/C(=O)N2CCC=CC2=O)cc1	13.3	19.5 µM	1.5 µM
COc1ccc(/C=C/C(=O)N2CCCC=C(Cl)C2=O)cc1	9.3	1.5 µM	0.16 µM
COc1cc(/C=C/C(=O)N2CC(O)C=CC2=O)cc(OC)c1OC (stereo unspecified)	1.5	11.3 µM	7.4 µM
COc1cc(/C=C/C(=O)N2CCC(=O)/C(=C/c3ccc(F)cc3)C2)cc(OC)c1OC	3.9	53.8 µM	14 µM
COc1cc(/C=C/C(=O)N2CCC(=O)/C(=C/c3ccc(F)cc3F)C2)cc(OC)c1OC	4.2	62.5 µM	14.7 µM
COc1cc(/C=C/C(=O)N2CCC=C(Cl)C2=O)cc(OC)c1OC	8.1	5.3 µM	0.65 µM
COc1cc(/C=C/C(=O)N2CCC=CC2=O)cc(OC)c1OC [PIPLARTINE]	2.5	20.3 µM	
COc1cc(/C=C/C(=O)N2CCC(=O)CC2)cc(OC)c1OC		> 40 µM	> 40 µM
COc1cc(/C=C/C(=O)N2CCCC=C(Br)C2=O)cc(OC)c1OC	6.5	3.6 µM	0.56 µM
COc1cc(/C=C/C(=O)N2CC=CCC2=O)cc(OC)c1OC	>2.9	> 80 µM	27.5 µM
COc1cc(/C=C/C(=O)N2OCC=CC2=O)cc(OC)c1OC	6	48.9 µM	8.1 µM
